pIC50: −log10 of the molar value.
What was measured:
[1] = system: NF-kB transcriptional activity in HEK-293-NF-kB-Luc cell line overexpressing MALT1; assay: NF-kB reporter assay (luciferase, MALT1 stably overexpressed); type: cell-based; conditions: Homo sapiens, 24 h, HEK-293-NF-kB-Luc cells stably overexpressing MALT1, 24 h treatment, Bright Glo luminescence; read-out: NF-kB inhibition IC50
Method: The NF-⇐B reporter assay was performed to screen for MALT1 inhibition mediated reduction in the NF-⇐B transcriptional activity. For this purpose, MALT1 was stably overexpressed in HEK-293—NF-⇐B-Luc cell line. Cells were seeded in poly-D-lysine coated 96-well plates in a culture medium containing the selection markers (DMEM+10% FBS+50 |g/ml Hygromycin+500 |g/ml Geniticin) and allowed to adhere overnight. On the following day, cells were treated with various concentrations of test compounds for 24 h. After 24 h of treatment with test compounds, media was removed from each well and Bright Glo™ (Promega, USA) substrate was added and incubated for further 10 min at ambient temperature. Luminescence was measured for detection of NF-⇐B reporter activity. RLUs (Relative Luminescence Units) were directly proportional to the NF-⇐B activity. % inhibition of NF-⇐B activity was calculated relative to the samples containing media with 0.1% DMSO alone as per the following formula

full length MALT1 enzyme = molecular target: T1, full length MALT1 enzyme (Homo sapiens, UniProt Q9UDY8); assay: MALT1 biochemical assay (fluorescence based, Ac-Leu-Arg-Ser-Arg-AMC cleavage); conditions: full length MALT1 protein, 2 h pre-incubation at RT, tetrapeptide substrate Ac-Leu-Arg-Ser-Arg-AMC, read-out: Malt 1 inhibition IC50
T1 construct: a fluorescence based assay with full length MALT1 enzyme
T1 sequence (Q9UDY8 1-824): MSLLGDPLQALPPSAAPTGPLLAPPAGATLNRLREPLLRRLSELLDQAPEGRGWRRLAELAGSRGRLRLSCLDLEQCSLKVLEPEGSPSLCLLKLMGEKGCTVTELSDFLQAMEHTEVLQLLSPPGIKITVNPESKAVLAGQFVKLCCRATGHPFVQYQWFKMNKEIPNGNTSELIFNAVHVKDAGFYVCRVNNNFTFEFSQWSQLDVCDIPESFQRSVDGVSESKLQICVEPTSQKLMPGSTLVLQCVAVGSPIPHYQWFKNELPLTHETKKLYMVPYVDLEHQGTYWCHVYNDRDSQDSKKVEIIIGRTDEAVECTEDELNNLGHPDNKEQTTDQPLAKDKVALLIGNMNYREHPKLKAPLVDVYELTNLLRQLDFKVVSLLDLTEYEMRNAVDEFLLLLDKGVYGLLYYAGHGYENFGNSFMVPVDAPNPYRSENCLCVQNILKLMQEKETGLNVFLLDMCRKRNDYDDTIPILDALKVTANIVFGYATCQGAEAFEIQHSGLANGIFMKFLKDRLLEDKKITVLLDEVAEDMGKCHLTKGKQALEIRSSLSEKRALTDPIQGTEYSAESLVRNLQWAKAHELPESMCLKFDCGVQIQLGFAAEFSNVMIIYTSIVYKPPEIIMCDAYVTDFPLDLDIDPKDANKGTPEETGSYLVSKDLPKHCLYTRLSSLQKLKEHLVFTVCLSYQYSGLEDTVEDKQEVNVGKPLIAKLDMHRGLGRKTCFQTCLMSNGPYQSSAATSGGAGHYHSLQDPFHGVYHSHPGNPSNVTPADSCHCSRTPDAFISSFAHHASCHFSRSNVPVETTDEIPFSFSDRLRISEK
Method: The biochemical potency of the MALT1 inhibitors was tested by using a fluorescence based assay with full length MALT1 enzyme. The assay principle makes use of the preferential cleavage by MALT1 after the Arginine residue. Thus, the substrate used is a tetrapeptide (Ac-Leu-Arg-Ser-Arg-AMC; Catalogue # SMAMC013, SM Biochemicals) which is cleaved by active MALT1 releasing the AMC which is fluorescent. Upon addition of the MALT1 protease inhibitors, the proteolytic activity (and accordingly AMC fluorescence) is reduced in a dose dependent manner. The kinetic characterization of the enzymatic reaction was measured by determining the Michaelis constant, Km, of the reaction (approximately 130=A/I). The assay buffer consisted of 50 mM MES, 150 mM NaCl, 0.1% w/v CHAPS, 1 M Ammonium citrate and 10 mM DTT (pH=7). The assay was established for the 384-well plate format using black microtiter square well plates (Optiplate 384-F, Perkin Elmer). The test compounds were dissolved in 100% DMSO at a stock concentration of 10 mM. Serial dilutions were made first in 100% DMSO. The final concentration of DMSO was 0.5% by wt.
For determining the extent of inhibition of MALT1 protease activity by MALT1 inhibitors, 10⇒| of the test compound solutions were pre-incubated with 10⇒| of MALT1 full length protein (100-300 ng protein/well) for 2 h at RT. This was followed by 10⇒| of substrate addition at a final concentration of 100⇒M for an additional 4-12 h. The increase in assay signal was linear over this period of time and proportional with increase in the enzyme content. The final concentrations of the test compounds typically ranged from 10000 nM to 0.03 nM in an alternate 3.16 and 3 serial dilutions. The positive control for the reaction contained enzyme and DMSO (without any test compound) and was considered to have 100% enzyme activity (0% inhibition) and the negative control containing only buffer and DMSO (without any enzyme) was considered to have no enzymatic activity (100% inhibition). The fluorescence was recorded in a Spectra Max plate reader, Molecular Devices, with a fluorescence excitation at 360 nm and emission recording at 460 nm. The fluorescence units were transformed to percentage inhibitions by using the positive and negative controls as references as per the following formula.
[formula] Positive control=Reaction containing enzyme+substrate+DMSO
Negative control=Reaction containing substrate+DMSO but no enzyme
The IC50 values of individual compounds were calculated with Non Linear Regression Analysis using Graph Pad Prism (Graph Pad software, Inc, USA).

Compound	pIC50 (full length MALT1 enzyme)	pIC50 [1]
COCC1CCCN(c2c(NC(=O)Nc3cnc(-n4nccn4)c(Cl)c3)cnc3sc(C)nc23)C1 (racemic) [Compound 50, (ě)-1-(5-Chloro-6-(2H-1,2,3-triazol-2-yl)pyridin-3-yl)-3-(7-(3-(methoxymethyl)piperidin-1-yl)-2-methylthiazolo[5,4-b]pyridin-6-yl)urea]	7.30 to 9.00	6.30 to 7.00
COCC1CCCN(c2c(NC(=O)Nc3cnc(OC)c(Cl)c3)cnc3sc(C)nc23)C1 (racemic) [Compound 51, (ě)-1-(5-Chloro-6-methoxypyridin-3-yl)-3-(7-(3-(methoxymethyl)piperidin-1-yl)-2-methylthiazolo[5,4-b]pyridin-6-yl)urea]	7.00 to 7.29	5.82 to 6.30
COC1CCCN(c2c(NC(=O)Nc3cnc(-n4nccn4)c(Cl)c3)cnc3sc(C)nc23)C1 (racemic) [Compound 52, (ě)-1-(5-Chloro-6-(2H-1,2,3-triazol-2-yl)pyridin-3-yl)-3-(7-(3-methoxypiperidin-1-yl)-2-methylthiazolo[5,4-b]pyridin-6-yl)urea]	7.30 to 9.00	6.30 to 7.00
Cc1nc2c(C(C)O)c(NC(=O)Nc3cnc(-n4nccn4)c(C(F)(F)F)c3)cnc2s1 (single isomer, unassigned) [Compound 71b, 1-(6-(2H-1,2,3-Triazol-2-yl)-5-(trifluoromethyl)pyridin-3-yl)-3-(7-(1-hydroxyethyl)-2-methylthiazolo[5,4-b]pyridin-6-yl)urea]	7.30 to 9.00	7.00 to 9.00
Cc1nc2c(C(C)N(C)C)c(NC(=O)Nc3cnc(-n4nccn4)c(C(F)(F)F)c3)cnc2s1 (single isomer, unassigned) [Compound 74b, 1-(6-(2H-1,2,3-Triazol-2-yl)-5-(trifluoromethyl)pyridin-3-yl)-3-(7-(1-(dimethylsmino)ethyl)-2-methylthiazolo[5,4-b]pyridin-6-yl)urea]	7.30 to 9.00	7.00 to 9.00
COc1nc(-n2nccn2)c(C(F)(F)F)cc1NC(=O)Nc1cnc2sc(C)nc2c1C(C)OC (single isomer, unassigned) [Compound 88b, 1-(2-Methoxy-6-(2H-1,2,3-triazol-2-yl)-5-(trifluoromethyl)pyridin-3-yl)-3-(7-(1-methoxyethyl)-2-methylthiazolo[5,4-b]pyridin-6-yl)urea]	7.30 to 9.00	7.00 to 9.00
COC(=O)c1cc(Cl)cc(NC(=O)Nc2cnc3sc(C)nc3c2C(C)OC)c1 (single isomer, unassigned) [Compound 152b, Methyl 3-chloro-5-(3-(7-(1-methoxyethyl)-2-methylthiazolo[5,4-b]pyridin-6-yl)ureido)benzoate]	7.30 to 9.00	7.00 to 9.00
COc1nc(-n2nccn2)c(C(F)(F)F)cc1NC(=O)Nc1cnc2sc(C)nc2c1C(OC)C1CC1 (single isomer, unassigned) [Compound 155a, 1-(7-(Cyclopropyl(methoxy)methyl)-2-methylthiazolo[5,4-b]pyridin-6-yl)-3-(2-methoxy-6-(2H-1,2,3-triazol-2-yl)-5-(trifluoromethyl)pyridin-3-yl)urea]	7.30 to 9.00	7.00 to 9.00
CCOC(C)c1c(NC(=O)Nc2cc(Cl)cnc2OC)cnc2sc(C)nc12 (single isomer, unassigned) [Compound 167b, 1-(5-Chloro-2-methoxypyridin-3-yl)-3-(7-(1-ethoxyethyl)-2-methylthiazolo[5,4-b]pyridin-6-yl)urea]	7.00 to 7.29	7.00 to 9.00

Second part, led by results:

pIC50 (full length MALT1 enzyme)	Compound	pIC50 [1]
7.30 to 9.00	COC(c1c(NC(=O)Nc2cnc(-n3nccn3)c(C(F)(F)F)c2)cnc2sc(C)nc12)C(C)C (single isomer, unassigned) [Compound 78b, 1-(6-(2H-1,2,3-Triazol-2-yl)-5-(trifluoromethyl)pyridin-3-yl)-3-(7-(1-methexyl-methylpropyl)-2-methylthiazolo[5,4-b]pyridin-6-yl)urea]	7.00 to 9.00
7.30 to 9.00	COC(c1ccccc1)c1c(NC(=O)Nc2cnc(-n3nccn3)c(Cl)c2)cnc2sc(C)nc12 (single isomer, unassigned) [Compound 84b, 1-(5-Chloro-6-(2H-1,2,3-triazol-2-yl)pyridin-3-yl)-3-(7-(methoxy(phenyl)methyl)-2-methylthiazolo[5,4-b]pyridin-6-yl)urea]	7.00 to 9.00
7.30 to 9.00	COc1nc(-n2nccn2)c(Cl)cc1NC(=O)Nc1cnc2sc(C)nc2c1C(C)OC (single isomer, unassigned) [Compound 90a, 1-(5-Chloro-2-methoxy-6-(2H-1,2,3-triazol-2-yl)pyridin-3-yl)-3-(7-(1-methoxyethyl)-2-methylthiazolo[5,4-b]pyridin-6-yl)urea]	7.00 to 9.00
7.30 to 9.00	CCC(OC)c1c(NC(=O)Nc2ccc(-n3nccn3)c(Cl)c2)cnc2sc(C)nc12 (single isomer, unassigned) [Compound 126b, 1-(3-Chloro-4-(2H-1,2,3-triazol-2-yl)phenyl)-3-(7-(1-methoxypropyl)-2-methylthiazolo[5,4-b]pyridin-6-yl)urea]	7.00 to 9.00
7.30 to 9.00	COC(C)c1c(NC(=O)Nc2cnc(-n3nccn3)c(C(F)(F)F)c2)cnc2sc(C)nc12 (single isomer, unassigned) [Compound 142a, 1-(6-(2H-1,2,3-Triazol-2-yl)-5-(trifluoromethyl)pyridin-3-yl)-3-(7-(1-methoxyethyl)-2-methylthiazolo[5,4-b]pyridin-6-yl)urea]	7.00 to 9.00
7.30 to 9.00	COC(C)c1c(NC(=O)Nc2ccc(-n3ccnn3)c(Cl)c2)cnc2sc(C)nc12 (single isomer, unassigned) [Compound 198b, (S) or (R)-1-(3-Chloro-4-(1H-1,2,3-triazol-1-yl)phenyl)-3-(7-(1-methoxyethyl)-2-methylthiazolo[5,4-b]pyridin-6-yl)urea]	7.00 to 9.00
6.30 to 7.00	COC(C)c1c(NC(=O)Nc2ccc(-c3cnco3)c(Cl)c2)cnc2sc(C)nc12 (single isomer, unassigned) [Compound 204, (S) or (R)-1-(3-Chloro-4-(oxazol-5-yl)phenyl)-3-(7-(1-methoxyethyl)-2-methylthiazolo[5,4-b]pyridin-6-yl)urea]	6.30 to 7.00

Source: patent US20190275012A9, “SUBSTITUTED THIAZOLO-PYRIDINE COMPOUNDS AS MALT1 INHIBITORS” (Lupin Limited, priority 2016, published 2019)
